In PubChem BioAssay AID234 (DTP/NCI, 2004):
Values joined by “and” are separate entries in the source; they are usually repeats but may differ in a detail not shown here. Identical values can stand only once. Results filed as inconclusive are left out.

Tested on: C3AKF1 mice, hamster liver cystadenocarcinoma s.c., tumor weight T/C
Test: NCI In Vivo Anticancer Drug Screen. Data for tumor model Cystadenocarcinoma, Liver (No. 1) (Hamster) (subcutaneous) in C3AKF1 (CHKRF1) mice
Conditions: endpoint: mean tumor weight, schedule: Q01DX010 (ip), vehicle: carboxymethylcellulose (CMC), higher = larger tumour
Method: The antitumor activity of compounds was measured in mice bearing transplantable tumors. Survival or tumor size were measured and the results are expressed as the measurement made in the treated group (T) divided by the measurement made in the vehicle treated control group (C). The tumor model used in this assay is Cystadenocarcinoma, Liver (No. 1) (Hamster) (subcutaneous) in C3AKF1 (CHKRF1) mice

## CCCCCCCCCC(C)(O)C#CC(C)(O)CCCCCCCCC (configuration not stated)
dose: 12.5 mg/kg/injection
  T/C: 86 % of control
dose: 25.0 mg/kg/injection
  T/C: 74 % of control
dose: 50.0 mg/kg/injection
  T/C: 96 % of control
dose: 100.0 mg/kg/injection
  T/C: 64 % of control

## Nc1nc(SCc2ccccc2Cl)c2[nH]cnc2n1
dose: 12.0 mg/kg/injection
  T/C: 55 % of control
dose: 25.0 mg/kg/injection
  T/C: 104 % of control
dose: 50.0 mg/kg/injection
  T/C: 60 % of control and 84 % of control
dose: 100.0 mg/kg/injection
  T/C: 100 % of control and 109 % of control

## CS(=O)(=O)OCCCOS(C)(=O)=O
dose: 15.0 mg/kg/injection
  T/C: 53 % of control
dose: 30.0 mg/kg/injection
  T/C: 79 % of control
dose: 60.0 mg/kg/injection
  T/C: 53 % of control

## CC(C)CCS(=O)(=O)OCCCCOS(=O)(=O)CCC(C)C
dose: 62.5 mg/kg/injection
  T/C: 57 % of control
dose: 125.0 mg/kg/injection
  T/C: 94 % of control
dose: 250.0 mg/kg/injection
  T/C: 57 % of control
dose: 500.0 mg/kg/injection
  T/C: 75 % of control

## Cc1cc(N)c2cc(NC(=O)CCCCCCCCC(=O)Nc3ccc4nc(C)cc(N)c4c3)ccc2n1
dose: 31.0 mg/kg/injection
  T/C: 68 % of control
dose: 62.0 mg/kg/injection
  T/C: 50 % of control
dose: 125.0 mg/kg/injection
  T/C: 38 % of control

## CCOC(=O)C(Cc1ccc(N(CCCl)CCCl)cc1)NC=O (configuration not stated)
dose: 10.0 mg/kg/injection
  T/C: 93 % of control
dose: 20.0 mg/kg/injection
  T/C: 93 % of control
dose: 40.0 mg/kg/injection
  T/C: 55 % of control

## O=C1C=CC(=Nc2ccc(O)c3ncccc23)c2cccnc21
dose: 6.0 mg/kg/injection
  T/C: 95 % of control
